According to ChEMBL document CHEMBL1201862, “PubChem BioAssay data set” (2004):
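Five compound concentrations were applied to cells in 96-well plates for 48 hours; endpoints were derived by simple linear interpolation of the resulting dose-response curve. GI50 = concentration required for 50% inhibition of growth.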 Active and inactive are the calls of the source. No stated cut-off is given here; in the data, active = GI50 up to about 1.1 µM and inactive = higher.

Columns and labels:
Test in all cases: inhibition of tumour cell growth, NCI panel, 48 h
BT-549 = system: BT-549
CAKI-1 = system: CAKI-1
COLO 205 = system: COLO 205
HCT-15 = system: HCT-15
HOP-92 = system: HOP-92
IGROV-1 = system: IGROV-1
MOLT-4 = system: MOLT-4
Malme-3M = system: Malme-3M
NCI-H226 = system: NCI-H226
OVCAR-4 = system: OVCAR-4
OVCAR-5 = system: OVCAR-5
PC-3 = system: PC-3
SF-539 = system: SF-539
SK-MEL-28 = system: SK-MEL-28
SK-MEL-2 = system: SK-MEL-2
SK-MEL-5 = system: SK-MEL-5
SN12C = system: SN12C
U-251 = system: U-251
UACC-257 = system: UACC-257
MCF7 = system: MCF7

| Compound | GI50 (BT-549) | GI50 (CAKI-1) | GI50 (COLO 205) | GI50 (HCT-15) [µM] | GI50 (HOP-92) | GI50 (IGROV-1) | GI50 (MOLT-4) | GI50 (Malme-3M) | GI50 (NCI-H226) | GI50 (OVCAR-4) | GI50 (OVCAR-5) | GI50 (PC-3) | GI50 (SF-539) | GI50 (SK-MEL-28) | GI50 (SK-MEL-2) | GI50 (SK-MEL-5) | GI50 (SN12C) | GI50 (U-251) | GI50 (UACC-257) | GI50 (MCF7) |
| --- | --- | --- | --- | --- | --- | --- | --- | --- | --- | --- | --- | --- | --- | --- | --- | --- | --- | --- | --- | --- |
| C=C1C(=O)O[C@H]2[C@H]([C@H](C)CCCC(C)=O)O[C@H]([C@@]3(C)CCC(=O)O3)C[C@@H]12 | 31.8 µM (inactive) | 18.3 µM (inactive) | 40.6 µM (inactive) | 42 | > 100 µM (inactive) | > 100 µM (inactive) | 78.7 µM (inactive) | 18.4 µM (inactive) | 31.3 µM (inactive) | > 100 µM (inactive) | > 100 µM (inactive) | > 100 µM (inactive) | 59.8 µM (inactive) | > 100 µM (inactive) | > 100 µM (inactive) | > 100 µM (inactive) | 92 µM (inactive) | > 100 µM (inactive) | 77.1 µM (inactive) |  |
| CC(C)=CC1C(C(=O)OCc2cc3c(cc2Cl)OCO3)C1(C)C (configuration not stated) | 63 µM (inactive) | 56.1 µM (inactive) |  | 30.1 | 31.7 µM (inactive) | 20 µM (inactive) | 13.1 µM (inactive) | 15.5 µM (inactive) | 39.6 µM (inactive) | 49.8 µM (inactive) | 39.2 µM (inactive) | 11.5 µM (inactive) |  | 54.1 µM (inactive) | 6.4 µM (inactive) | 16.7 µM (inactive) | 28.6 µM (inactive) | 12.6 µM (inactive) | 12.6 µM (inactive) |  |
| CC(=O)OC12c3ccccc3-c3ccccc3C1C(C(=O)O)C2C(=O)O (configuration not stated) |  | > 10 µM (inactive) | > 10 µM (inactive) | > 10 | > 10 µM (inactive) | > 10 µM (inactive) | > 10 µM (inactive) | 1.2 µM (inactive) | > 10 µM (inactive) | > 10 µM (inactive) | > 10 µM (inactive) | > 10 µM (inactive) | > 10 µM (inactive) | > 10 µM (inactive) | > 10 µM (inactive) | > 10 µM (inactive) | > 10 µM (inactive) | > 10 µM (inactive) | > 10 µM (inactive) | > 10 µM (inactive) |
| CCOC(=O)CC(N1CC1)N1CC1 |  | > 10 µM (inactive) | > 10 µM (inactive) | > 10 |  | > 10 µM (inactive) | > 10 µM (inactive) | > 10 µM (inactive) | > 10 µM (inactive) | > 10 µM (inactive) | > 10 µM (inactive) | > 10 µM (inactive) | > 10 µM (inactive) | > 10 µM (inactive) | > 10 µM (inactive) | > 10 µM (inactive) | > 10 µM (inactive) | > 10 µM (inactive) | > 10 µM (inactive) | > 10 µM (inactive) |
| CN1CCC(=O)/C(=C/c2ccccc2)C1 |  | 17.9 µM (inactive) | 13.7 µM (inactive) | 7.06 | 17.5 µM (inactive) | 16 µM (inactive) | 7.74 µM (inactive) | 19.5 µM (inactive) | 16.8 µM (inactive) | 17.9 µM (inactive) | 15.7 µM (inactive) |  | 17.7 µM (inactive) | 18.2 µM (inactive) | 20.5 µM (inactive) | 17.9 µM (inactive) | 14.7 µM (inactive) | 6.44 µM (inactive) | 14.7 µM (inactive) |  |
| CN(C)CCNC(=O)c1cccc2ncc(-c3ccccc3)nc12 |  | 6.58 µM (inactive) | 4.11 µM (inactive) | 5.37 | 18.7 µM (inactive) | 20.5 µM (inactive) | 2.52 µM (inactive) | 13 µM (inactive) | 7.91 µM (inactive) | 8.77 µM (inactive) | 9.04 µM (inactive) |  | 4.51 µM (inactive) | 18.2 µM (inactive) | 14.6 µM (inactive) | 11.5 µM (inactive) | 6.14 µM (inactive) | 8.26 µM (inactive) | 14.7 µM (inactive) |  |
| CSC1=C(C#N)C(=S)N=C(N)C1C(=O)Nc1ccc(C)cc1 (configuration not stated) | > 100 µM (inactive) | > 100 µM (inactive) | > 100 µM (inactive) | > 100 |  | > 100 µM (inactive) | > 100 µM (inactive) | > 100 µM (inactive) | 60.1 µM (inactive) | > 100 µM (inactive) | > 100 µM (inactive) | > 100 µM (inactive) | > 100 µM (inactive) | > 100 µM (inactive) | > 100 µM (inactive) | > 100 µM (inactive) | > 100 µM (inactive) | > 100 µM (inactive) | > 100 µM (inactive) |  |
| COc1ccc(C(N)=O)cc1/N=N/N(C)C |  | > 100 µM (inactive) | > 100 µM (inactive) | > 100 | > 100 µM (inactive) | > 100 µM (inactive) | > 100 µM (inactive) | > 100 µM (inactive) | > 100 µM (inactive) | > 100 µM (inactive) | > 100 µM (inactive) |  | > 100 µM (inactive) | > 100 µM (inactive) | > 100 µM (inactive) | > 100 µM (inactive) | > 100 µM (inactive) | > 100 µM (inactive) | > 100 µM (inactive) |  |
| Clc1ccccc1CN1COc2c(ccc3cccnc23)C1 |  | 2.88 µM (inactive) | 8.38 µM (inactive) | 2.06 | 2.36 µM (inactive) | 3.5 µM (inactive) | 2.22 µM (inactive) | 4.78 µM (inactive) | 3.87 µM (inactive) | 3.6 µM (inactive) | 7.41 µM (inactive) |  | 3.59 µM (inactive) | 3.61 µM (inactive) | 1.72 µM (inactive) | 2.77 µM (inactive) | 6.93 µM (inactive) | 5.6 µM (inactive) | 2.72 µM (inactive) |  |
| C/C(=N/NC(=S)NCCc1ccccn1)c1cnccn1 | 32.5 µM (inactive) | 14.1 µM (inactive) | 3.8 µM (inactive) |  | 49.3 µM (inactive) | 19 µM (inactive) | 3.26 µM (inactive) | 6.37 µM (inactive) |  | 24.4 µM (inactive) | 79.3 µM (inactive) | 48.8 µM (inactive) |  | 31 µM (inactive) | > 100 µM (inactive) | 27 µM (inactive) | 21.9 µM (inactive) | 20.2 µM (inactive) | 35.6 µM (inactive) |  |
| CC(NC(=O)OC(C)(C)C)C(=O)NC1CCCC1 (configuration not stated) |  | > 100 µM (inactive) | > 100 µM (inactive) |  | > 100 µM (inactive) | > 100 µM (inactive) | > 100 µM (inactive) | > 100 µM (inactive) | > 100 µM (inactive) | > 100 µM (inactive) | > 100 µM (inactive) | > 100 µM (inactive) |  | > 100 µM (inactive) |  | > 100 µM (inactive) | > 100 µM (inactive) |  | > 100 µM (inactive) | > 100 µM (inactive) |
| CC1(C)O[C@H]2[C@H](O)C[C@](O)(CO)C[C@H]2O1 |  | > 100 µM (inactive) | > 100 µM (inactive) | > 100 | > 100 µM (inactive) | > 100 µM (inactive) | > 100 µM (inactive) | > 100 µM (inactive) | > 100 µM (inactive) | > 100 µM (inactive) | > 100 µM (inactive) |  | > 100 µM (inactive) | > 100 µM (inactive) | > 100 µM (inactive) | > 100 µM (inactive) | > 100 µM (inactive) | > 100 µM (inactive) | > 100 µM (inactive) |  |
